Assay results published in patent US20170190671A1, “BIS(ARYL)CATECHOL DERIVATIVES AS HERBICIDES” (E I DU PONT DE NEMOURS AND COMPANY, priority 2014, published 2017).

Legend:
Experiment in all cases: Test A preemergence
Type in all cases: in vivo
[1] = system: velvetleaf (Abutilon theophrasti); settings: for Plant response rating, Velvetleaf: 0 to 100 scale
How it was run: (§1)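 Scoring: eye-based comparison with untreated controls, 0 for no effect through 100 for complete control, at about day 10. Treatments: directed soil spray preemergence; foliar spray postemergence on 2–10 cm plants at the one- to two-leaf stage. Medium: loam soil with sand.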

[2] = system: corn (Zea mays); settings: 0 to 100 scale
How it was run: as §1

[3] = system: morningglory (Ipomoea spp.); settings: for Plant response rating, Morningglory: 0 to 100 scale
How it was run: as §1

[4] = system: wheat (Triticum aestivum); settings: for Plant response rating, Wheat: 0 to 100 scale
How it was run: as §1

[5] = system: large (Lg) crabgrass (Digitaria sanguinalis); settings: for Plant response rating, Crabgrass, Large: 0 to 100 scale
How it was run: as §1

[6] = 125 g ai/ha, 0 to 100 scale (0 no effect, 100 complete control)

SMILES	Plant response rating, Velvetleaf ([1]; 125 g ai/ha)	Plant response rating, Velvetleaf ([1]; 500 g ai/ha)	Plant response rating, Corn ([2]; 125 g ai/ha)	Plant response rating, Corn ([2]; 500 g ai/ha)	Plant response rating, Morningglory ([3]; 125 g ai/ha)	Plant response rating, Morningglory ([3]; 500 g ai/ha)	Plant response rating, Wheat ([4]; 125 g ai/ha)	Plant response rating, Wheat ([4]; 500 g ai/ha)	Plant response rating, Crabgrass, Large ([5]; 125 g ai/ha)	Plant response rating, Crabgrass, Large ([5]; 500 g ai/ha)	Velvetleaf plant response rating [1, 6]	Morningglory plant response rating [3, 6]	Wheat plant response rating [4, 6]	Crabgrass, Large plant response rating [5, 6]
N#Cc1cccc(Oc2ncc(Cl)cn2)c1Oc1ncc(Cl)cn1 [Compound 3, 2,3-bis[(5-chloro-2-pyrimidinyl)oxy]benzonitrile]	100	100	60	70	100	100	30	80	100	100				
Clc1cnc(Oc2cccc(Br)c2Oc2ncc(Cl)cn2)nc1 [Compound 19, 2,2′-[[3-bromo-1,2-phenylene]bis(oxy)]bis[5-chloropyrimidine]]		90	10	60		100		70		100	80	70	40	100
